Here are results for 1 compound from patent US20040142317A1, “Use of amino acid transporter atbo,+ as a delivery system for drugs and prodrugs” (priority 2003, published 2004).

Assay [1] deals with T1, ATA2 (Homo sapiens, UniProt Q96QD8).
T1 construct: expressed in transfected cells; host or cells: HRPE cells
T1 sequence (Q96QD8 1-506): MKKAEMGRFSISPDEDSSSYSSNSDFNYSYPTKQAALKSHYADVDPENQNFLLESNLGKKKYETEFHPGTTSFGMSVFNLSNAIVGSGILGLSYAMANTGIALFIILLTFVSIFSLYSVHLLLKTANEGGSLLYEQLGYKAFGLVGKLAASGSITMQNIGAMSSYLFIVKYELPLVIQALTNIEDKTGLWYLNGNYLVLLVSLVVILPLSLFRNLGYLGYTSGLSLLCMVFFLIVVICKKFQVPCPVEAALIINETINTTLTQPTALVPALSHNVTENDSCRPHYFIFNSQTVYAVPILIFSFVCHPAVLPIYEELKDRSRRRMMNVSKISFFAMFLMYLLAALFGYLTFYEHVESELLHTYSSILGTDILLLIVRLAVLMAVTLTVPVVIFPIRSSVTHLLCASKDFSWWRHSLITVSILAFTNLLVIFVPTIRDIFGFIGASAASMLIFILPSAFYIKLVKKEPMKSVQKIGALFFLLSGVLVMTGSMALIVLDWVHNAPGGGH
The assay can be described thus: D-[3H]-serine transport in HRPE cells transfected with transporter cDNA. The assay is classed as cell-based. The note with it: D-[3H]-serine 5 μM. As for the experimental part: (§1) Transport of D-[^3H]-serine (5 μM) was measured in HRPE cells transfected with cDNA of each transporter.
(§2) The present inventors evaluated the function of 10 different amino acid transporter clones with respect to transport of D-serine in heterologous expression systems (FIG. 11). All of these transporters are expressed in the intestinal tract. The list of the transporters tested include three energy-independent, heterodimeric facilitative transporters (L1, L2, and b^0,+), three subtypes of the Na^+-coupled system A (ATA1, ATA2, and ATA3), two subtypes of the Na^+- and H^+-coupled system N (SN1 and SN2), the Na^+-coupled system ATB^0, and the Na^+- and Cl^−-coupled system ATB^0,+. […] The ability to transport D-serine was the highest for the Na^+- and Cl^−-coupled transporter ATB^0,+. ATB^0,+ belongs to the gene family of neurotransmitter transporters whose transport function is energized by multiple driving forces, namely a Na^+ gradient, a Cl^− gradient, and membrane potential. […] Based on the energetics of these two transport systems, ATB^0,+ is expected to play the leading role in this process.

The target in assay [2] is T2, ATB^0,+ (Mus musculus, UniProt Q9JMA9).
T2 construct: expressed in transfected cells; host or cells: HRPE cells
T2 sequence (Q9JMA9 1-638): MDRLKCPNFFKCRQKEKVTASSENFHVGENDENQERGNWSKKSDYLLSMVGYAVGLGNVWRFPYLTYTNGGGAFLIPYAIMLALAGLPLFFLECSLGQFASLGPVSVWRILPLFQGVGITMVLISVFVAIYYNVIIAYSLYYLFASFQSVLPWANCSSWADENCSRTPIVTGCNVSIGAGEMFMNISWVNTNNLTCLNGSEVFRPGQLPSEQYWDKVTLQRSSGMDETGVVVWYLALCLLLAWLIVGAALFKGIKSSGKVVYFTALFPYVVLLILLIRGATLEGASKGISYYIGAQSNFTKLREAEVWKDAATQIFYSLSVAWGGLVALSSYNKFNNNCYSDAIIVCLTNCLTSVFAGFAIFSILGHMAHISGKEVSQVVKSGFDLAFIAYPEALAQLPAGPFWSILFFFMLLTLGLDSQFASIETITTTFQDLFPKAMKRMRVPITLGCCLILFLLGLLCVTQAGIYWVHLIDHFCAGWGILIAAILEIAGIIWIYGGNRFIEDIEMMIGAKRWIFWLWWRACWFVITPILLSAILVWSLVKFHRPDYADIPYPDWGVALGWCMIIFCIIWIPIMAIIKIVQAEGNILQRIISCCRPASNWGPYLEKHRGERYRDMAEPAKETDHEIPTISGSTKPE
The description is as above. It is filed as cell-based. The note with it: D-[3H]-serine 5 μM. The procedure: as §1, §2

The target of assay [3] is T3, SN1 (Homo sapiens, UniProt Q99624).
T3 construct: expressed in transfected cells; host or cells: HRPE cells
Described as above. The assay is classed as cell-based. The note with it: D-[3H]-serine 5 μM. As for the experimental part:
as §1, §2

The target in assay [4] is T4, SN2 (Homo sapiens, UniProt Q8WUX1).
T4 construct: expressed in transfected cells; host or cells: HRPE cells
The description is as above. The assay is classed as cell-based. The note with it: D-[3H]-serine 5 μM. The procedure: as §1, §2

The target in assay [5] is T5, b^0,+AT/rBAT (Mus musculus, UniProt Q9QXA6).
T5 construct: expressed in transfected cells; host or cells: HRPE cells
T5 sequence (Q9QXA6 1-487): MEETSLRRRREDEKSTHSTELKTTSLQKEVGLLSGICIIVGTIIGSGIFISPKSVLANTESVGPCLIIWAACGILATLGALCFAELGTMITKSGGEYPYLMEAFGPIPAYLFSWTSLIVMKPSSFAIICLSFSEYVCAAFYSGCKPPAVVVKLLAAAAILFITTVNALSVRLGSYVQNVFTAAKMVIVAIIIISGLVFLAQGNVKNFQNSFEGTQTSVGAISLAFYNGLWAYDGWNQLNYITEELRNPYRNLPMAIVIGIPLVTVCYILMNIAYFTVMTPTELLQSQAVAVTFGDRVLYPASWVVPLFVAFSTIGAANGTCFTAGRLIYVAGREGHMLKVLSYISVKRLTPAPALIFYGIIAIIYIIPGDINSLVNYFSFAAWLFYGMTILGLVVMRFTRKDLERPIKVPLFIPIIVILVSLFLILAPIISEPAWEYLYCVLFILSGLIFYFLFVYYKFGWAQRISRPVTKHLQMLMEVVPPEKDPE
The description is as above. The assay is classed as cell-based. The note with it: D-[3H]-serine 5 μM. The procedure:
as §1, §2

For assay [6], the target named is T6, mouse ATB^0,+ (Mus musculus, UniProt Q9JMA9).
T6 sequence (Q9JMA9 1-638): T2 sequence (Q9JMA9 1-638)
The note with it: D-amino acid 1 mM; NaCl pH 7.5.

The target in assay [7] is T7, ATB^0 (Homo sapiens, UniProt Q15758).
T7 sequence (Q15758 1-541): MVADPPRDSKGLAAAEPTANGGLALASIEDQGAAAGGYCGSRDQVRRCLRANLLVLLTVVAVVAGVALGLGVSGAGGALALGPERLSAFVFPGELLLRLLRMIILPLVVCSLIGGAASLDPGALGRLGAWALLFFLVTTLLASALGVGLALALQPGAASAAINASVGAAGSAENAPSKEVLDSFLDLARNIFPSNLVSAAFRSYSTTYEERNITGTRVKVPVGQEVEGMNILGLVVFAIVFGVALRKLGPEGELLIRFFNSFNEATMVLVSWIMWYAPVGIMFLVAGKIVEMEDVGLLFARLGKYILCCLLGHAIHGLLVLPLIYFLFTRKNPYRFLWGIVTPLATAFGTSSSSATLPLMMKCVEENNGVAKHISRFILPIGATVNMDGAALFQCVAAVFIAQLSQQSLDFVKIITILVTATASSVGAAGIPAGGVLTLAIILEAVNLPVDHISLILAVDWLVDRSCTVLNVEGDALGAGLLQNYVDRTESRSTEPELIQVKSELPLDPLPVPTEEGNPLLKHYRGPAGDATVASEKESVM
The assay can be described thus: D-[3H]-serine transport in HRPE cells transfected with transporter cDNA. The arrangement: expressed in transfected cells; host or cells: HRPE cells. As to conditions: D-[3H]-serine 5 μM. It is filed as cell-based. The procedure: as §1, §2

SMILES strings stand for the structures.

T3 sequence (Q99624 whole entry, species assumed): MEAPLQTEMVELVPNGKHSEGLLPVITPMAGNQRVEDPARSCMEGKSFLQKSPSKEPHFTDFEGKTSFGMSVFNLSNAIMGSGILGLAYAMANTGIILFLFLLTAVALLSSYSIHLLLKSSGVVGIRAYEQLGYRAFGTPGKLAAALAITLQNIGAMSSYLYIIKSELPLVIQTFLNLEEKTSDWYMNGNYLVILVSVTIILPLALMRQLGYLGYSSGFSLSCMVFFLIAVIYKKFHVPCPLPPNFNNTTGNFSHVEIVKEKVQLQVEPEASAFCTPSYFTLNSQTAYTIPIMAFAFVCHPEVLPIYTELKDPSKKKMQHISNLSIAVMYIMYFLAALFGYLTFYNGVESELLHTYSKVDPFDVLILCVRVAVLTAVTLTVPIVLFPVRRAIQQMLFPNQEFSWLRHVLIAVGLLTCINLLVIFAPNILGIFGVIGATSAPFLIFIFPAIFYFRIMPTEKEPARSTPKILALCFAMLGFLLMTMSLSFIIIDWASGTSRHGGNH
T4 sequence (Q8WUX1 whole entry, species assumed): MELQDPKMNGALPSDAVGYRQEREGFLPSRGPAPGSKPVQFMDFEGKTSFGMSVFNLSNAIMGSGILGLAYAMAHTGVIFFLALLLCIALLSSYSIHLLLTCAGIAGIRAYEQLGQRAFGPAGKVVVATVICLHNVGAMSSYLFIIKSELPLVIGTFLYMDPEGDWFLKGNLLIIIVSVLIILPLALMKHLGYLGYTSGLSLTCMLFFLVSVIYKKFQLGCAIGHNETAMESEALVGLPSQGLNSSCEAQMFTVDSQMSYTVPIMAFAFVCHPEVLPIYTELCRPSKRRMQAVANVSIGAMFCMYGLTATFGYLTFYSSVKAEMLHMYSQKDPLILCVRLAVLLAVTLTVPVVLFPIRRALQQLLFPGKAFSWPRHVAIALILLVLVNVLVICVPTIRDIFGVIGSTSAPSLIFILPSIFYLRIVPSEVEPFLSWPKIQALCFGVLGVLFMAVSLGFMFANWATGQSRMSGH

Regarding `N[C@H](CO)C(=O)O` [D-Serine, D-serine], the D-serine transport entry in assay [1] is “showed D-serine transport activity”; in assay [2], “highest”; in assay [3], “did not transport D-serine”; in assay [4], “did not transport D-serine”; in assay [5] it was “did not exhibit detectable D-serine transport activity”; in assay [7], “able to transport D-serine to a marked extent”. Besides, in assay [6], the “Current in X. laevis oocytes (nA), D-isomer” value amounted to 267 ± 23 nA.
